In patent US20230151057A1, “LACTIC ACID BACTERIA GROWTH PROMOTER” (Asahi Group Holdings, Ltd., priority 2020, published 2023):
Ends that are not written are not given here.

The substances below were run on Lactobacillus curvatus (NITE P-02033) (assay: Growth-promoting effect on Lactobacillus curvatus in modified MRS medium (particle count)). Details: Example 4; peptide 0.25 mg/mL, 37° C., 18 hours.
Type: cell-based
Excerpt: Nitrogen sources in MRS medium were reduced to find a medium composition that achieves a total bacterial count of about 1.0×10^8 cell/mL to 1.0×10^9 cell/mL after culturing of each of the six bacterial strains Lactobacillus gasseri (FERNM BP-11331), Lactobacillus acidophilus (FERM BP-4981), Lactobacillus amylovorus (FERM BP-11255), Lactobacillus curvatus (NITE P-02033), Lactobacillus plantarum, and Lactobacillus brevis. This composition, named “modified MRS medium”, was used for the evaluation. Here, for the composition of the MRS medium, a composition described in a medium catalog provided by BD (Becton, Dickinson and Company) was used as a reference. The compositions of the MRS medium and the modified MRS medium are as follows. By chemical synthesis, 28 kinds of candidate peptides having the sequences shown below were provided. Each candidate peptide was added to the modified MRS medium at 0.25 mg/mL to provide a medium to be evaluated. The lactic acid bacterium Lactobacillus gasseri was inoculated at 1.0×10^7 cells/mL to the provided medium to be evaluated, and culture was carried out at a temperature of 37° C. for a culture period of 18 hours. The resulting culture was collected, and subjected to measurement of the particle concentration (particles/mL) as a characteristic value that can be used as an index of the bacterial cell growth, using a particle count analyzer (CDA-1000, Sysmex). The rate of increase (%) was calculated relative to a control value obtained using a medium to which no peptide was added, which was taken as 100%. For eight kinds of candidate peptides having the sequences shown below, the growth-promoting effect on a lactic acid bacterium was evaluated in the same manner as in Example 1 except that Lactobacillus curvatus was used instead of Lactobacillus gasseri.

Substance | Particle concentration [mL⁻¹]
AGPQTF | 1.58e+08
APKPDYPIA (listed as Saccharomyces cerevisiae) [Ala-Pro-Lys-Pro-Asp-Tyr-Pro-Ile-Ala] | 1.6e+08
Leu-Phe [LF] | 2.22e+08
Leu-Pro-Trp-Gly (LPWG; listed as Saccharomyces cerevisiae) | 1.97e+08
Pro-Ser-Val-Phe (PSVF; listed as Saccharomyces cerevisiae) | 1.68e+08
Pro-Val-Phe [PVF] | 1.71e+08
Pro-Val-Tyr [PVY] | 1.64e+08
Val-Pro-Ala-Phe (VPAF; listed as Saccharomyces cerevisiae) | 2.15e+08

Same assay, conditions: Example 4; peptide 0.25 mg/mL, 37° C., 18 hours; control = 100%

Substance | Rate of increase [%]
AGPQTF | 111
APKPDYPIA (listed as Saccharomyces cerevisiae) [Ala-Pro-Lys-Pro-Asp-Tyr-Pro-Ile-Ala] | 112
Leu-Phe [LF] | 124
Leu-Pro-Trp-Gly (LPWG; listed as Saccharomyces cerevisiae) | 109
Pro-Ser-Val-Phe (PSVF; listed as Saccharomyces cerevisiae) | 119
Pro-Val-Phe [PVF] | 95
Pro-Val-Tyr [PVY] | 116
Val-Pro-Ala-Phe (VPAF; listed as Saccharomyces cerevisiae) | 117

Each substance was assayed on Lactobacillus plantarum (assay: Growth-promoting effect on Lactobacillus plantarum in modified MRS medium (particle count)). Details: Example 5; peptide 0.25 mg/mL, 37° C., 18 hours.
Type: cell-based
Excerpt: Nitrogen sources in MRS medium were reduced to find a medium composition that achieves a total bacterial count of about 1.0×10^8 cell/mL to 1.0×10^9 cell/mL after culturing of each of the six bacterial strains Lactobacillus gasseri (FERNM BP-11331), Lactobacillus acidophilus (FERM BP-4981), Lactobacillus amylovorus (FERM BP-11255), Lactobacillus curvatus (NITE P-02033), Lactobacillus plantarum, and Lactobacillus brevis. This composition, named “modified MRS medium”, was used for the evaluation. Here, for the composition of the MRS medium, a composition described in a medium catalog provided by BD (Becton, Dickinson and Company) was used as a reference. The compositions of the MRS medium and the modified MRS medium are as follows. By chemical synthesis, 28 kinds of candidate peptides having the sequences shown below were provided. Each candidate peptide was added to the modified MRS medium at 0.25 mg/mL to provide a medium to be evaluated. The lactic acid bacterium Lactobacillus gasseri was inoculated at 1.0×10^7 cells/mL to the provided medium to be evaluated, and culture was carried out at a temperature of 37° C. for a culture period of 18 hours. The resulting culture was collected, and subjected to measurement of the particle concentration (particles/mL) as a characteristic value that can be used as an index of the bacterial cell growth, using a particle count analyzer (CDA-1000, Sysmex). The rate of increase (%) was calculated relative to a control value obtained using a medium to which no peptide was added, which was taken as 100%. For eight kinds of candidate peptides having the sequences shown below, the growth-promoting effect on a lactic acid bacterium was evaluated in the same manner as in Example 1 except that Lactobacillus plantarum was used instead of Lactobacillus gasseri.

Substance | Particle concentration [mL⁻¹]
AGPQTF | 3.36e+09
APKPDYPIA (listed as Saccharomyces cerevisiae) [Ala-Pro-Lys-Pro-Asp-Tyr-Pro-Ile-Ala] | 3.45e+09
Leu-Phe [LF] | 3.32e+09
Leu-Pro-Trp-Gly (LPWG; listed as Saccharomyces cerevisiae) | 3.09e+09
Pro-Ser-Val-Phe (PSVF; listed as Saccharomyces cerevisiae) | 3.17e+09
Pro-Val-Phe [PVF] | 2.92e+09
Pro-Val-Tyr [PVY] | 3.23e+09
Val-Pro-Ala-Phe (VPAF; listed as Saccharomyces cerevisiae) | 3.27e+09

Same assay, conditions: Example 5; peptide 0.25 mg/mL, 37° C., 18 hours; control = 100%

Substance | Rate of increase [%]
AGPQTF | 108
APKPDYPIA (listed as Saccharomyces cerevisiae) [Ala-Pro-Lys-Pro-Asp-Tyr-Pro-Ile-Ala] | 111
Leu-Phe [LF] | 107
Leu-Pro-Trp-Gly (LPWG; listed as Saccharomyces cerevisiae) | 100
Pro-Ser-Val-Phe (PSVF; listed as Saccharomyces cerevisiae) | 102
Pro-Val-Phe [PVF] | 94
Pro-Val-Tyr [PVY] | 104
Val-Pro-Ala-Phe (VPAF; listed as Saccharomyces cerevisiae) | 105

These substances were tested on Lactobacillus brevis (assay: Growth-promoting effect on Lactobacillus brevis in modified MRS medium (particle count)). Details: Example 6; peptide 0.25 mg/mL, 37° C., 18 hours.
Type: cell-based
Excerpt: Nitrogen sources in MRS medium were reduced to find a medium composition that achieves a total bacterial count of about 1.0×10^8 cell/mL to 1.0×10^9 cell/mL after culturing of each of the six bacterial strains Lactobacillus gasseri (FERNM BP-11331), Lactobacillus acidophilus (FERM BP-4981), Lactobacillus amylovorus (FERM BP-11255), Lactobacillus curvatus (NITE P-02033), Lactobacillus plantarum, and Lactobacillus brevis. This composition, named “modified MRS medium”, was used for the evaluation. Here, for the composition of the MRS medium, a composition described in a medium catalog provided by BD (Becton, Dickinson and Company) was used as a reference. The compositions of the MRS medium and the modified MRS medium are as follows. By chemical synthesis, 28 kinds of candidate peptides having the sequences shown below were provided. Each candidate peptide was added to the modified MRS medium at 0.25 mg/mL to provide a medium to be evaluated. The lactic acid bacterium Lactobacillus gasseri was inoculated at 1.0×10^7 cells/mL to the provided medium to be evaluated, and culture was carried out at a temperature of 37° C. for a culture period of 18 hours. The resulting culture was collected, and subjected to measurement of the particle concentration (particles/mL) as a characteristic value that can be used as an index of the bacterial cell growth, using a particle count analyzer (CDA-1000, Sysmex). The rate of increase (%) was calculated relative to a control value obtained using a medium to which no peptide was added, which was taken as 100%. For eight kinds of candidate peptides having the sequences shown below, the growth-promoting effect on a lactic acid bacterium was evaluated in the same manner as in Example 1 except that Lactobacillus brevis was used instead of Lactobacillus gasseri.

Substance | Particle concentration [mL⁻¹]
AGPQTF | 1.16e+09
APKPDYPIA (listed as Saccharomyces cerevisiae) [Ala-Pro-Lys-Pro-Asp-Tyr-Pro-Ile-Ala] | 1.12e+09
Leu-Phe [LF] | 1.24e+09
Leu-Pro-Trp-Gly (LPWG; listed as Saccharomyces cerevisiae) | 1.18e+09
Pro-Ser-Val-Phe (PSVF; listed as Saccharomyces cerevisiae) | 1.16e+09
Pro-Val-Phe [PVF] | 1.17e+09
Pro-Val-Tyr [PVY] | 1.17e+09
Val-Pro-Ala-Phe (VPAF; listed as Saccharomyces cerevisiae) | 1.16e+09

Same assay, conditions: Example 6; peptide 0.25 mg/mL, 37° C., 18 hours; control = 100%

Substance | Rate of increase [%]
AGPQTF | 106
APKPDYPIA (listed as Saccharomyces cerevisiae) [Ala-Pro-Lys-Pro-Asp-Tyr-Pro-Ile-Ala] | 103
Leu-Phe [LF] | 114
Leu-Pro-Trp-Gly (LPWG; listed as Saccharomyces cerevisiae) | 108
Pro-Ser-Val-Phe (PSVF; listed as Saccharomyces cerevisiae) | 106
Pro-Val-Phe [PVF] | 107
Pro-Val-Tyr [PVY] | 107
Val-Pro-Ala-Phe (VPAF; listed as Saccharomyces cerevisiae) | 106
